Source: EPA's ToxValDB 9.5 (doi:10.2903/j.efsa.2011.2419)

Columns and labels:
Anas platyrhynchos = conditions: short-term; oral; feed; mortality
Colinus virginianus = conditions: acute, oral, mortality; for LC50: diet
Rattus norvegicus = conditions: inhalation
[1] = reproduction developmental, mortality

SMILES | LC50 (Anas platyrhynchos) [mg/kg] | LC50 (Colinus virginianus) [mg/kg] | LD50 (Colinus virginianus) [mg/kg-day] | NOAEL (Rattus norvegicus; chronic, duration: 2 years) [mg/kg-day] | NOAEL (Rattus norvegicus; [1]) [mg/kg-day] | NOAEL (Rattus norvegicus; subchronic, duration: 90 days) [mg/kg-day]
[Ca+2].[Ca+2].[Ca+2].[P-3].[P-3] [Tricalcium diphosphide] | 2040 | 330 | < 24.7 | 1.1 | 1.9 | 1.1
P [Phosphine] | 762 | 124 | < 9.2 | 1.1 | 1.9 | 1.1
